From ChEMBL document CHEMBL1154685, “Simple oxidation of pyrimidinylhydrazones to triazolopyrimidines and their inhibition of Shiga toxin trafficking” (Eur J Med Chem, 2010) come the findings set out here.

This data set relates to HeLa. Description: Toxicity in human HeLa cells assessed as inhibition of protein synthesis by [35S]labeled methionine and cysteine incorporation. Type of data set: cell-based.

As for `Oc1ccc(-c2nc3c4c5c(sc4ncn3n2)CCCC5)cc1`, the Activity entry is recorded as “Non-toxic”.

Consider `COc1cc(/C=N/NC2=C3C4=C(CCCC4)SC3N=CN2)ccc1O` (configuration not stated), for which the Activity entry is “Non-toxic”.
